We go through one compound from article PMC6803849, “Biodistribution of Nanostructured Lipid Carriers in Mice Atherosclerotic Model” (Molecules, 2019).

Structures are written as SMILES.

Assay in all cases: MMP inhibition assay with fluorogenic substrate
What all share (assay type): biochemical

For assay [1], the target named is T1, hMMP-10 (Homo sapiens, UniProt P09238).
T1 construct: purchased R&D Systems
The protocol: (§1) The binding capacity of the RXP470.1 ligand grafted on RXP-NLC surface was first assessed through an inhibition assay in the presence of a fluorogenic substrate. The affinity and selectivity profile of RXP-NLC was determined on a set of eight human MMPs and compared to the parent ligand.
(§2) Affinity and selectivity profile of RXP-NLC were determined toward a set of 8 human MMPs. Human MMP-8, -9, -12, and -13 were produced at CEA in Saclay according to a procedure previously reported. Other MMPs were purchased from R&D Systems (Minneapolis, MN, USA). MMP inhibition assays were carried out in 50 mM Tris-HCl buffer, pH = 6.8, 10 mM CaCl2 at 25 °C as previously described. Pro-MMPs were pre-activated by p-aminophenylmercuric acetate following the method described by R&D Systems. Titration experiments were carried out to determine the active enzyme concentration for each MMP prior to the assay. Continuous kinetic assays were performed by recording the fluorescence increase induced by the cleavage of fluorogenic substrates (Mca-Pro-Leu- Gly-Leu-Dpa-Ala-Arg-NH2 for MMP-1, -2, -7, -8, -9, -10, -12, -13, and -14 and Mca-Arg-Pro-Lys-Pro- Val-Glu- Nva-Trp-Arg-LysDNP-NH2 for MMP-3). A typical experiment was performed in 200 μL of Tris buffer containing 0.2–0.5 nM of MMP, and a 4.5 μM concentration of fluorogenic substrates. Black, flat-bottomed, 96-well non-binding surface plates (Corning-Costar, Schiphol-RijK, Netherlands) were used for these tests. Fluorescence signals were monitored using a Fluoroskan Ascent photon counter spectrophotometer (Thermo-Labsystems, Courtaboeuf, France) equipped with a temperature control device and a plate shaker. […] Ki values were determined using the method proposed by Horovitz and Leviski.

Assay [2] concerns the target T2, hMMP-12 (Homo sapiens, UniProt P39900).
T2 construct: made in house
The protocol:
as §1, §2

Assay [3] concerns the target T3, hMMP-13 (Homo sapiens, UniProt P45452).
T3 construct: made in house
The protocol:
as §1, §2

Assay [4] deals with T4, hMMP-14 (Homo sapiens, UniProt P50281).
T4 construct: purchased R&D Systems
The protocol:
as §1, §2

Assay [5] has as its target T5, hMMP-2 (Homo sapiens, UniProt P08253).
T5 construct: purchased R&D Systems
T5 sequence (P08253 110-660): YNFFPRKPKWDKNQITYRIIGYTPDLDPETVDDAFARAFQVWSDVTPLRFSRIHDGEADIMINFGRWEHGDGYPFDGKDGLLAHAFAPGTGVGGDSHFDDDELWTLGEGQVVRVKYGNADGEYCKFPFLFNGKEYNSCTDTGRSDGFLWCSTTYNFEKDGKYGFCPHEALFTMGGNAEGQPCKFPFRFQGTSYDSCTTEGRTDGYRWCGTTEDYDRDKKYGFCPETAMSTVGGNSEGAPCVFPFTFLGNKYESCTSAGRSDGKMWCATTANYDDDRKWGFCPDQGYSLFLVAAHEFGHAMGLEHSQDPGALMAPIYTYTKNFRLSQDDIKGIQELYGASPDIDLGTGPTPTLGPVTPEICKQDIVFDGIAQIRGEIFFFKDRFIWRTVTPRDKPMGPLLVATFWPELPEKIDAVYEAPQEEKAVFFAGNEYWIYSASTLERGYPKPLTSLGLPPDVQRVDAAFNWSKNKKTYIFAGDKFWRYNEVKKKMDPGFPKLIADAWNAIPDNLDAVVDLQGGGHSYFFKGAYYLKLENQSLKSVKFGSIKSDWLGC
The protocol:
as §1, §2

In assay [6] the target is T6, hMMP-3 (Homo sapiens, UniProt P08254).
T6 construct: purchased R&D Systems
The protocol:
as §1, §2

The target in assay [7] is T7, hMMP-8 (Homo sapiens, UniProt P22894).
T7 construct: made in house
The protocol: as §1, §2

The target in assay [8] is T8, hMMP-9 (Homo sapiens, UniProt P14780).
T8 construct: made in house
The protocol:
as §1, §2

For orientation: Ki means the dissociation constant of the complex between target and ligand, obtained from inhibition or displacement. Read a high Ki as weaker binding.

T1 sequence (P09238 99-476): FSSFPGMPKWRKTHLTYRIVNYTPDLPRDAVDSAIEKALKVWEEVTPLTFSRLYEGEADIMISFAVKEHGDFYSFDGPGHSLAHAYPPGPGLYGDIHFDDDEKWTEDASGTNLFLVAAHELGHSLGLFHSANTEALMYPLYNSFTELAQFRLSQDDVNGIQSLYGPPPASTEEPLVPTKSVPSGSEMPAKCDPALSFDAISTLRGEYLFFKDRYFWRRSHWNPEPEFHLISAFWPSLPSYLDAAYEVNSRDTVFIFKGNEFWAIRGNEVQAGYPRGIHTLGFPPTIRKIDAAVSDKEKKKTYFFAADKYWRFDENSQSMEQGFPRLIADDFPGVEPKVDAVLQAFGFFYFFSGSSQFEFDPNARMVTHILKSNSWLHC
T6 sequence (P08254 100-477): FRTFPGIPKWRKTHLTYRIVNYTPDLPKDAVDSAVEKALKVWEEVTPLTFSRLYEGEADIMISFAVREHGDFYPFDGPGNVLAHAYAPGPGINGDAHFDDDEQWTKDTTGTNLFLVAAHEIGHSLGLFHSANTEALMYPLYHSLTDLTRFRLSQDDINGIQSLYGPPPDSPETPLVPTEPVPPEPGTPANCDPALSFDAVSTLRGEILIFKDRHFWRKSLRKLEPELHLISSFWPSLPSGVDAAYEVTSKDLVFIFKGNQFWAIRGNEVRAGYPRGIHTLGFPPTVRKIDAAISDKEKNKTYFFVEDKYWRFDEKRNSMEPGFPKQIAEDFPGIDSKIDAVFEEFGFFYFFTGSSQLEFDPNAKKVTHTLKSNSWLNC
T8 sequence (P14780 94-707): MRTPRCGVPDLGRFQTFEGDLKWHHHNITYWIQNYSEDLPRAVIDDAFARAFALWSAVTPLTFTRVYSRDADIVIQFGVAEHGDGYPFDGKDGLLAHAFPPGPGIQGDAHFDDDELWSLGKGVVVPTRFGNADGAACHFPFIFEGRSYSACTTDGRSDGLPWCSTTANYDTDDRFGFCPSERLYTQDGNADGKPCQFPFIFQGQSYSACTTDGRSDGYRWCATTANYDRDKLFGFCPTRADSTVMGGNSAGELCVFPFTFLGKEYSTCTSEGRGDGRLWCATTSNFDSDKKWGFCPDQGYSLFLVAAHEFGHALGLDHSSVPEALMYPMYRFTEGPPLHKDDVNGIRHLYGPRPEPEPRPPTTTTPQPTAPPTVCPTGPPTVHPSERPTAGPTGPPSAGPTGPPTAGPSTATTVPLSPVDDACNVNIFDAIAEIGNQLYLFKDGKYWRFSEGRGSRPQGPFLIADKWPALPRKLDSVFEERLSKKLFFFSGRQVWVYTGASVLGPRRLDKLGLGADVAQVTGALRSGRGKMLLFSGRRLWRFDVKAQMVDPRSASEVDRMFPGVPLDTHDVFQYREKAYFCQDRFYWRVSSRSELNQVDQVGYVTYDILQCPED
T2 sequence (P39900 106-470): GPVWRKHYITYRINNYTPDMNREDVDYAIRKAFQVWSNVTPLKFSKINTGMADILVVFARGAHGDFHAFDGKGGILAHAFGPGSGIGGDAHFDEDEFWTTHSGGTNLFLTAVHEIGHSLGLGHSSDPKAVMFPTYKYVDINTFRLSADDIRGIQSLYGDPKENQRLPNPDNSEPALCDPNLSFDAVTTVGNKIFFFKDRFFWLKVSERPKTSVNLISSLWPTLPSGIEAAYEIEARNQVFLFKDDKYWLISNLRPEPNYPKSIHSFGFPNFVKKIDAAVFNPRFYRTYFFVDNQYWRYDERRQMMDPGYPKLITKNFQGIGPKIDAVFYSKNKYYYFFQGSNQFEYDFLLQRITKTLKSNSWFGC
T7 sequence (P22894 101-467): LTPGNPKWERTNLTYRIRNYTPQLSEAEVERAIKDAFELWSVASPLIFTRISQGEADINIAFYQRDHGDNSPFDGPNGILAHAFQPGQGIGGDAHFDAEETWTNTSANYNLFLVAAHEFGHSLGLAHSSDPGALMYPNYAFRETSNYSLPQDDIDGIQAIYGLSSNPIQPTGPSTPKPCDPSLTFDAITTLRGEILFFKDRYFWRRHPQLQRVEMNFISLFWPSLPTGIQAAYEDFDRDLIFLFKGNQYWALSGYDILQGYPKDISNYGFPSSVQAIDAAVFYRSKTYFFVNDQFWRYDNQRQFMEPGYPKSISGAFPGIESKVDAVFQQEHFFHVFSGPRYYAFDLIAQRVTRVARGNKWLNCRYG

Take `NC(=O)[C@H](CCC(=O)O)NC(=O)[C@H](CCC(=O)O)NC(=O)[C@H](Cc1cc(-c2ccc(-c3cccc(Cl)c3)cc2)no1)CP(=O)(O)c1ccc(Br)cc1` [RXP470.1]: the Ki in assay [1] was 17 ± 2 nM; in assay [2] (50 mM Tris-HCl buffer, pH 6.8, 10 mM CaCl2, 25 °C, mean ± SD of three independent experiments), 0.26 ± 0.05 nM; in assay [3] it was 11 ± 1 nM; in assay [4] it was 150 ± 21 nM; in assay [5], 52 ± 4 nM; in assay [6] it was 80 ± 2 nM. Besides, the Ki turned out to be 120 ± 40 nM in assay [7] and 170 ± 50 nM in assay [8]. Further, in assay [1] (relative to hMMP12), the “Selectivity factor hMMP-10” value was 65. For the same compound, the “Selectivity factor hMMP-12” value in assay [2] (relative to hMMP12) amounted to 1. In assay [3] (relative to hMMP12), the “Selectivity factor hMMP-13” value is 42. Besides, in assay [4] (relative to hMMP12), the “Selectivity factor hMMP-14” value is 577. For the same compound, in assay [5] (relative to hMMP12), the “Selectivity factor hMMP-2” value turned out to be 200. The “Selectivity factor hMMP-3” value in assay [6] (relative to hMMP12) came to 308. Besides, the “Selectivity factor hMMP-8” value in assay [7] (relative to hMMP12) is given as 462. Also, the “Selectivity factor hMMP-9” value in assay [8] (relative to hMMP12) was 654.
